This is an account of results in patent publication US12350273B2, “Treatment of SMA” (Hoffmann-La Roche Inc., priority 2017, dated 2025).

One assay deals with Cynomolgus monkey iPSCs. Put plainly: Cell cycle analysis of Cynomolgus monkey iPSCs (flow cytometry). The note with it: for percentage of events in G1 phase, mean / percentage of events in G2 phase, mean / percentage of events in S phase, mean: Cynomolgus monkey iPSCs, 24 h. The assay is classed as cell-based. On the procedure: For the analysis of the cell cycle, monkey stem cells were detached with Accutase (Stem Cell Technologies) and plated at 15000 cells/cm2 in 6 well plates coated with Matrigel (BD Biosciences) in MT medium supplemented with 10 ng/ml ActivinA, 15 ng/ml FGF2, and 10 μM Rock inhibitor. Cells were expanded for 1 day and then synchronized by starvation for 7 h in MT medium without supplements FGF2 and ActivinA. Before flow cytometry, cells were incubated for 24 h with fresh MT medium containing supplements FGF2 and ActivinA and test items at 80 nM, 400 nM, and 2000 nM or 30 nM rapamycin as positive control to arrest cells in G1 phase. Human stem cells were detached with Accutase (Stem Cell Technologies) and plated at 40000 cells/cm2 in 6 well plates coated with Matrigel (BD Biosciences) in mTeSR1 supplemented with 10 μM Rock Inhibitor Y-27632 (Sigma-Aldrich). Cells were expanded for 3 days with daily medium change. Since human iPSCs lose their properties during starvation by growth factor withdrawal, stem cells were synchronized with 200 ng/ml Nocodazole (Sigma-Aldrich) for 5 h and washed subsequently 2 times with mTesR1 Medium. Before flow cytometry, cells were incubated for 24 h with fresh TesR1 medium containing test items at 80 nM, 400 nM, and 2000 nM or 30 nM rapamycin as positive control to arrest cells in G1 phase.
For cell cycle analysis, human iPSCs were washed with PBS, detached with Accutase (Stem Cell Technologies) and collected by centrifugation. Cells were stained for 1 h at 37° C. with 600 ul of 7 AAD/Saponin/RNAse mix ([…] 7 AAD (#559925, BD), 50 μg/ml RNase, and 0.03% Saponin dissolved in FACS buffer (PBS, 5% FBS, 10 mM Hepes)). Cynomolgus monkey iPSCs were washed with PBS, detached with Accutase (Stem Cell Technologies) and collected by centrifugation. Cells were stained for 30 min at 37° C. in 300 ul standard MT medium (with FGF2 and ActivinA) containing 1 ul Vybrant Dye Cycle Violet Stain (#V35003, 1000× stock, Invitrogen) per ml medium. Additionally 2 ul 7 AAD (50 μg/ml 7 AAD) were added without permeabilization to label dead cells; cells were incubated for 10 min at 37° C. Flow cytometry analysis was performed using a Canto II cytometer (BD Biosciences) and data were analysed with the FlowJo software.
(In flow cytometry, cells or beads pass a laser one at a time.)

Assay [1] relates to FOXM1B/C transcript variants. Put plainly: FOXM1B/C mRNA expression in Cynomolgus monkey iPSCs (RT-qPCR). As to conditions: 24 h; for Mean FOXM1B/C relative mRNA expression (2-ΔΔCt vs control): Cynomolgus monkey iPSCs. Type of assay: cell-based. On the procedure:
FIG. 5A-FIG. 5B: Effect of RO7034067 on FOXM1 mRNA expression levels in human and Cynomolgus monkey iPSCs • Cells were treated with RO7034067 for 24 hours, and FOXM1 B/C transcript variants were analyzed by RT-PCR. Data represent means±SEM of 3 repetitions and are expressed as fold change vs. controls. IC50 values are indicated. FIG. 5A. human iPSCs. FIG. 5B. Cynomolgus monkey iPSCs
Human iPSCs (hIPS_Neo_Clone_1) were cultivated in mTeSR1 (Stem Cell Technologies) as standard medium and Cynomolgus monkey iPSCs (cips_54-1285_cFIB_Clone_8) in MT medium supplemented with 10 ng/ml ActivinA and 15 ng/ml FGF2.
For gene expression profiling, stem cells were detached with Accutase (Stem Cell Technologies) and plated in 12 well plates coated with Matrigel (BD Biosciences) in the respective standard medium supplemented with 10 μM Rock inhibitor Y-27632 (Sigma-Aldrich). In order to obtain enough RNA, monkey stem cells were seeded at 15000 cells/cm2 and human stem cells were seeded at 40000 cells/cm2 24 h prior to treatment. Thereafter stem cells were treated for 24 h with serial dilutions (1:5) of test items in fresh, pre-warmed medium in a concentration range from 0.64 nM till ˜10 μM. To stop the experiment, cells were lysed in QiaGen's lysis buffer RLT with beta-mercaptoethanol.
Human and Cynomolgus monkey mRNA expression was measured with customized primer and FAM fluorescently-labeled Universal Probe Library (UPL) probes from Roche or probes from Microsynth containing a 5′ FAM label and a 3′ terminal BlackHole Dark Quencher 1 (BHQ1). The sequences of the primer and FAM labeled probes are listed as follows:
For quantitative Real-Time-PCR, cells cultivated in a 12 well plate and treated with Roche-compounds for 24 h were lysed in 500 ul/well of QiaGen's lysis buffer RLT with beta-mercaptoethanol. Total RNA was extracted with the RNeasy Mini kit combined with DNase treatment on a solid support. RNA integrity was controlled by using Nanodrop absorption spectroscopy and microfluidic capillary array electrophoresis profiles from an Agilent Bioanalyzer
2100. Between 300 ng to 800 ng of total RNA were reverse transcribed with oligo-dT primer and spiked MS2 RNA at 10 ng/uL final concentration using the Transcriptor First Strand cDNA Synthesis Kit (Roche Applied Science #04379012001) following the manufacturer's recommended protocol. The quantitative PCR was performed on a LightCycler 480 qPCR machine using 67.5 ng total RNA derived cDNA as input in a 20 μl mixture containing 1× LightCycler 480 Probes Master, 0.4 μM forward and reverse primers, and 0.2 μM FAM labeled hydrolysis probe. The temperature program consisted of pre-incubation at 95° C. for 10 min, followed by 50 cycles of amplification (95° C. for 10 s, 60° C. for 30 s, 72° C. for 5 s). Negative control reactions were conducted in the absence of cDNA template to confirm absence of cDNA contamination in the master mix. Measurements of Ct (cycle threshold)-values were performed for each sample-mRNA combination. Using the 2-ΔΔCt method (Livak K J et al. Method. Methods. 2001; 25(4):402-8), the data are presented as the fold change in gene expression normalized to an endogenous reference gene and relative to the untreated control. To derive individual ΔCt values, the Ct value for each target mRNA of each sample was normalized to the Ct value of the endogenous reference mRNA of GAPDH (glyceraldehyde-3-phosphate dehydrogenase). The […] was calculated by subtracting the ΔCt value of the vehicle-control group from the respective ΔCt value of each treatment group. Resultant expression ratios (2-ΔΔCt) mirrored treatment-related mRNA expression changes versus vehicle-controls. […] The model to derive the IC50 assumes that the dose response curves has a standard slope, equal to a Hill slope (or slope factor) of −1.0. Model equation: Y=Bottom+(Top-Bottom)/(1+10^((X-Log IC50))); with Y being the response data and X being log 10 concentrations in μM.

Each structure is given as a SMILES string.

Take `Cc1cn2nc(-c3cc(=O)n4cc(N5CCNC6(CC6)C5)ccc4n3)cc(C)c2n1` [RO7034067, 7-(4,7-diazaspiro[2.5]octan-7-yl)-2-(2,8-dimethylimidazo[1,2-b]pyridazin-6-yl)pyrido[1,2-a]pyrimidin-4-one]: the “percentage of events in G1 phase, mean” value in the assay on Cynomolgus monkey iPSCs (80 nM) stood at 33.8%; in the assay on Cynomolgus monkey iPSCs (400 nM), 30.3%; with Cynomolgus monkey iPSCs (2000 nM), 25.3%. Further, the “percentage of events in G2 phase, mean” value with Cynomolgus monkey iPSCs (80 nM) turned out to be 52.2%; in the assay with Cynomolgus monkey iPSCs (400 nM) it was 55.8%; with Cynomolgus monkey iPSCs (2000 nM), 61.3%. Besides, the “percentage of events in S phase, mean” value with Cynomolgus monkey iPSCs (80 nM) amounted to 14.0%; in the assay with Cynomolgus monkey iPSCs (400 nM) it was 14.0%; in the assay on Cynomolgus monkey iPSCs (2000 nM) it was 13.4%. In addition, the “effect on cell cycle” value in the assay on Cynomolgus monkey iPSCs (monkey iPSCs, concentration-dependent) is recorded as “cell cycle arrest in G2 phase”. Moreover, the “Mean FOXM1B/C relative mRNA expression (2-ΔΔCt vs control)” value is 0.967 in assay [1] (0.64 nM); 0.990 in assay [1] (3.2 nM); 0.963 in assay [1] (16 nM); 0.704 in assay [1] (80 nM); 0.176 in assay [1] (400 nM); 0.023 in assay [1] (2000 nM). Moreover, the “Mean FOXM1B/C relative mRNA expression (2-ΔΔCt vs control)” value in assay [1] (10000 nM) was determined as 0.037. Further, the IC50 in assay [1] (Macaca fascicularis, iPSC, monkey iPSCs, read-out: IC50 on expression levels of FOXM1B/C) worked out at 0.155 µM.
